Drawing on patent US8399462B2, “JNK modulators” (Roche Palo Alto LLC, priority 2006, dated 2013), this text covers melting point for 25 compounds.

Some results are limits rather than exact numbers.

Turning to `CC(C)(CO)COc1cccc2c1cnn2-c1ccnc(N[C@H]2CC[C@H](C(=O)N3CC[C@@H](O)C3)CC2)n1` (stereo in doubt) [Compound 261, (4-{4-[4-(3-hydroxy-2,2-dimethyl-propoxy)-indazol-1-yl]-pyrimidin-2-ylamino}-cyclohexyl)-(3-hydroxy-pyrrolidin-1-yl)-methanone], the melting point is 214 to 215 °C.

Turning to `COC[C@@H]1CCCN1C(=O)[C@H]1CC[C@H](Nc2nccc(-n3ccc4c(OCCCS(C)(=O)=O)cccc43)n2)CC1` (stereo in doubt) [Compound 266, (4-{4-[4-(3-methane-sulfonyl-propoxy)-indol-1-yl]-pyrimidin-2-ylamino}-cyclohexyl)-(2-methoxymethyl-pyrrolidin-1-yl)-methanone], the melting point was 92 to 93 °C.

The compound `C[C@@H]1CC[C@@H](C)N1C(=O)[C@H]1CC[C@H](Nc2nccc(-n3ncc4c(OCCCS(N)(=O)=O)cccc43)n2)CC1` (stereo in doubt) [Compound 271, 3-(1-{2-[4-(2,5-di-methyl-pyrrolidine-1-carbonyl)-cyclohexyl-amino]-pyrimidin-4-yl}-1H-indazol4-yloxy)-propane-1-sulfonic acid amide] displayed a melting point of 230 to 231 °C.

In turn, `C[C@@H]1CCCN1C(=O)[C@H]1CC[C@H](Nc2nccc(-n3ncc4c(OCCCS(N)(=O)=O)cccc43)n2)CC1` (stereo in doubt) [Compound 272, 3-(1-{2-[4-(2-methyl-pyrrolidine-1-carbonyl)-cyclohexylamino]-pyrimidin-4-yl}-1H-indazol4-yloxy)-propane-1-sulfonic acid amide] yielded a melting point of 230 to 231 °C.

`C[C@H]1CCCN1C(=O)[C@H]1CC[C@H](Nc2nccc(-n3ncc4c(OCCCS(N)(=O)=O)cccc43)n2)CC1` (stereo in doubt) [Compound 273, 3-(1-{2-[4-(2-methyl-pyrrolidine-1-carbonyl)-cyclohexylamino]-pyrimidin-4-yl}-1H-indazol-4-yloxy)-propane-1-sulfonic acid amide] displayed a melting point of 230 to 231 °C.

In turn, `O=[N+]([O-])c1ccc2cnn(-c3ccnc(N[C@H]4CC[C@H](O)CC4)n3)c2c1` [Compound 27] had a melting point of 221.8 to 223 °C.

Compound `COC(=O)c1cccc2c1ccn2-c1ccnc(N[C@H]2CC[C@H](O)CC2)n1` [Compound 37, 1-[2-(4-hydroxycyclo-hexylamino)-pyrimidin-4-yl]-1H-indole-4-carboxylic acid methyl ester] came in with a melting point of 206.7 to 208.3 °C.

With `N[C@H]1CC[C@H](Nc2nccc(-n3ccc4ccccc43)n2)CC1` [Compound 52, N-(4-indol-1-yl-pyrimidin-2-yl)-cyclo-hexane-1,4-diamine], the melting point was in the range of 270.1 to 273.3 °C.

Turning to `c1ccc2c(c1)ccn2-c1ccnc(NC2CCCCC2)n1` [Compound 66, Cyclohexyl-(4-indol-1-ylpyrimidin-2-yl)amine], the melting point was 192.5 to 193 °C.

Turning to `Cn1nc(-c2ccnc(N[C@H]3CC[C@H](O)CC3)n2)c2ccccc21` [Compound 77, 4-[4-(1-methyl-1H-indazol-3-yl)pyridimidin-2-ylamino]-cyclo-hexanol], the melting point was in the range of 180 to 183.3 °C.

In turn, `COc1cccc2c(-c3ccnc(N[C@H]4CC[C@H](O)CC4)n3)n[nH]c12` [Compound 80, 4-[4-(7-methoxy-1H-indazol-3-yl)-pyrimidin-2-ylamino]-cyclo-hexanol] yielded a melting point of 243.3 to 244.9 °C.

In turn, `O[C@H]1CC[C@H](Nc2nccc(-c3noc4ccc(F)cc34)n2)CC1` [Compound 83, 4-[4-(5-fluorobenzo[d]-isoxazol-3-yl)-pyrimidin-2-ylamino]-cyclohexanol] registered a melting point of 172 to 173.9 °C.

As for `OCCOc1ccc2cnn(-c3ccnc(N[C@H]4CC[C@H](O)CC4)n3)c2c1` [Compound 89, 4-{4-[6-(2-hydroxy-ethoxy)-indazol-1-yl]-pyrimidin-2-ylamino}-cyclohexanol], the melting point was in the range of 216.5 to 218.5 °C.

For `OCCOc1cccc2c1cnn2-c1ccnc(N[C@H]2CC[C@H](O)CC2)n1` [Compound 90, 4-{4-[4-(2-hydroxy-ethoxy)-indazol-1-yl]-pyrimidin-2-ylamino}-cyclohexanol], the melting point was in the range of 208.2 to 210.2 °C.

Compound `COc1cccc2c1cnn2-c1ccnc(NC2CCC(NC(C)=O)CC2)n1` (stereo not shown) [Compound 91, N-{4-[4-(4-methoxy-indazol-1-yl]-pyrimidin-2-ylamino}-cyclohexane}-acetamide] registered a melting point of 256.9 to 259.9 °C.

For `CN(c1cccc2c1ccn2-c1ccnc(N[C@H]2CC[C@H](O)CC2)n1)S(C)(=O)=O` [Compound 92, N-{1-[2-(4-hydroxy-cyclohexylamino)-pyrimidin-4-yl]-1H-indol-4-yl}-N-methyl-methanesulfonamide], the melting point lay within 235.8 to 236.2 °C.

Turning to `OCC(O)COc1ccc2cnn(-c3ccnc(N[C@H]4CC[C@H](O)CC4)n3)c2c1` (stereo partly shown) [Compound 93, 3-{1-[2-(4-hydroxy-cyclohexylamino)-pyrimidin-4-yl]-1H-indazol-6-yloxy}-propane-1,2-diol], the melting point was in the range of 223.8 to 224.7 °C.

With `O[C@H]1CC[C@H](Nc2nccc(-n3ncc4c(OCC5CC5)cccc43)n2)CC1` [Compound 94, 4-[4-(4-cyclopropyl-methoxy-indazol-1-yl)-pyrimidin-2-ylamino]-cyclohexanol], the melting point was greater than 300 °C.

Compound `O=C(COc1cccc2c1cnn2-c1ccnc(N[C@H]2CC[C@H](O)CC2)n1)N[C@H]1CC[C@H](O)CC1` [Compound 95, N-(4-hydroxy-cyclo-hexyl)-2-{1-[2-(4-hydroxy-cyclohexyl-amino)-pyrimidin-4-yl]-1H-indazol-4-yloxy}-acetamide] showed a melting point of 220 to 222.3 °C.

The compound `CS(=O)(=O)Nc1cccc2c1ccn2-c1ccnc(N[C@H]2CC[C@H](O)CC2)n1` [Compound 97, N-{1-[2-(4-hydroxy-cyclohexylamino)-pyrimidin-4-yl]-1H-indol-4-yl}-N-methane-sulfonamide] came in with a melting point of 240.2 to 240.8 °C.

`CCc1cccc2c1cnn2-c1ccnc(N[C@H]2CC[C@H](O)CC2)n1` [Compound 99, 4-[4-(4-ethylindazol-1-yl)-pyrimidin-2-yl-amino]-cyclohexanol] displayed a melting point of 170.2 to 174.4 °C.

As for `CNC(=O)OCc1cccc2c1ccn2-c1ccnc(N[C@H]2CC[C@H](O)CC2)n1` [Compound 100, Methyl-carbamic acid 1-[2-(4-hydroxy-cyclo-hexylamino)-pyrimidin-4-yl]-1H-indol-4-ylmethyl ester], the melting point lay in the range of 132 to 133 °C.

As to `N#CCc1cccc2c1ccn2-c1ccnc(N[C@H]2CC[C@H](O)CC2)n1` [Compound 101, {1-[2-(4-hydroxy-cyclo-hexylamino)-pyrimidin-4-yl]-1H-indol-4-yl}-acetonitrile], the melting point is 207 to 209 °C.

Take `COCc1cccc2c1ccn2-c1ccnc(N[C@H]2CC[C@H](O)CC2)n1` [Compound 102, 4-[4-(4-methoxymethyl-indol-1-yl)-pyrimidin-2-ylamino]-cyclohexanol]: the melting point was in the range of 134.8 to 137.3 °C.

Take `O[C@H]1CC[C@H](Nc2nccc(-n3ncc4c(OCc5ccccn5)cccc43)n2)CC1` [Compound 103, 4-{4-[4-(pyridine-2-yl-methoxy)-indazol-1-yl]-pyrimidin-2-ylamino}-cyclohexanol]: the melting point was in the range of 202.5 to 203.6 °C.

Broadly, the melting point is the temperature, or range, at which the solid turns liquid.
